We go through three compounds from patent publication US20060198882A1, “Stable liposomes or micelles comprising a sphinolipid and a peg-lipopolymer” (priority 2003, published 2006).

Several values for one entry are separate records, joined by “and”; a condition that tells them apart may be missing. Equal entries are not always repeated. Where two headings read alike, the source gives them in different places.

Data set [1] can be described thus: Partition in the two phases of the Dole system. The format is physicochemical. Conditions: for % of lipid in heptane-rich upper phase / % of lipid in isopropanol/water lower phase: Dole two phase system. The procedure:
The distribution of the C18 sphingosine-based ceramides with different acyl chain lengths and of DMS between the polar phase and respectively less polar phase (as defined below) of the Dole two phase system was determined. […] The different ceramides included: short (C2 Cer and C4 Cer), medium (C6 Cer and C8 Cer), long (C16 Cer). […] In: Liposome Technology 2nd Edn., G Gregoriadis (Ed.) CRC Press, Boca Raton, 1993, vol. 1, pp: 527-616]. The amount of each of the lipids used in each of the two phases was measured by thin-layer chromatography (TLC). For ceramide quantification TLC was developed in a solvent system containing chloroform/methanol (95:5 v/v). For DMS quantification TLC was developed in a solvent system containing chloroform/methanol/ammonia (89/9/2 v/v). Further, the TLC plate was sprayed with Copper sulfate reagent composed of 100 g anhydrous copper sulfate containing 80 ml of phosphoric acid (85%), %) dissolved in 600 ml of DDW. Copper sulphate reagent was applied to the plates by spraying, then heated and lipids appeared as dark brown spot. […] Quantity of ceramides in each phase was calculated from a standard curve of appropriate ceramide. […] (1993)Supra]. The distribution between the two Dole system phases was determined by the equation (as exemplified for ceramide): [formula] [formula] Where Kp denotes the partition coefficient of a given lipid or amphiphile referred to in the equation as lipid; Cer denotes ceramide; up is an abbreviation for the heptane rich low polarity upper phase and lp is an abbreviation for the polar isopropanol water rich lower phase.

Data set [2] is described as follows: Surface-pressure area isotherms. The format is physicochemical. Conditions: for minimal area per molecule: constant pressure of 20 mN/m; for collapse point pressure of monolayer: pure water sub-phase; for Area/molecule: table, monolayer on pure water sub-phase. The protocol:
The tested ceramides (C2 Cer, C4 Cer, C6 Cer, C8 Cer, C16 Cer) were dried in vacuum overnight, weighted and dissolved in hexane/isopropanol (3:2 vol.) to make the following stock solutions.
The surface-pressure/area isotherms were obtained on pure water sub-phase (similar isotherms were obtained on 140 mM NaCl). Barrier speed during compression was […] for all monolayers.
The minimal area per molecule of different ceramides (C2 Cer, C4 Cer, C6 Cer, C8 Cer, C16 Cer) was calculated at the constant pressure of 20 mN/m. […] The area per molecule of C2 Cer, C4 Cer, C8 Cer, C16 Cer was about 38, 46, 45.5, and 37.5^2, respectively.

A further data set has as its system C-26. The data set is described as follows: Methylene blue assay of cell survival. The format is cell-based, human. An excerpt:
(§1) Several tumor cell lines in monolayers were used. A human ovarian carcinoma cell line (OV-1063), established at the Hadassah University Hospital, a human colon carcinoma cell line (C-26), a DOX-sensitive M-109S ([…]), and a DOX-resistant, M-109R ([…]). All cell lines were maintained in RPMI-1640 medium supplemented with 10% FCS, antibiotics, and glutamine. All culture medium components were purchased from Biological Industries (Beit-HaEmek, Israel). Both cell lines were maintained at 37° C. in a water-jacketed CO2 incubator.
(§2) a) Various ceramides (Cer) with different chain lengths: short (C2 Cer and C4 Cer), medium (C6 Cer and C8 Cer), and long (C16 Cer) were first dissolved in 100% ethanol to a concentration of 30 mM, added to a serum-containing medium and mixed immediately. The final ethanol concentration in the serum-containing culture medium ranged from 0.1-0.5% (depending on the type of ceramide (Cer)).
(§3) b) Various ceramides with different chain lengths: short C2 Cer, medium C6 Cer, and long C16 Cer were dissolved in ethanol:dodecane (98:2 v/v) to a concentration of 30 mM and added to serum-free medium and mixed. Final concentrations of the ethanol and dodecane in the culture medium containing 10% of FCS ranged from 0.098-0.49% and 0.002-0.01%, respectively, depending on the type of ceramide.
(§4) The cytotoxicity of the examined assemblies comprising ceramide was tested by the methylene blue ([…]) staining assay [Gorodetsky, R. et al. Int. J. Cancer. 75:635-642 (1998)]. A known number of exponentially growing cells in 200 μL of medium were plated in 96-microwell, flat-bottomed plates. For each of the variants tested, 4 wells were used. Following 24 hr of incubation in culture, 20 μL of different concentrations of the examined assemblies were added to each well containing untreated cells.
(§5) The following controls were used: Citrate buffer (5 mM, pH 7); Ethanol solution in medium RPMI 1640 (final concentration of 0.1%); A solution RPMI 1640 of ethanol:dodecane (98:2 […]) at a final concentration of 0.1% and 0.2%, respectively.
(§6) Cells were exposed to assemblies for 4, 24, 72 or 96 hr. At the end of assembly exposure, for a fixed time interval, the drug-treated cells, as well as parallel control cells, were washed, and the incubation continued in fresh medium until termination of the experiment. Following 72 hr or 96 hr of growth, cells were fixed by adding 50 μL of 2.5% glutaraldehyde to each well for 15 min. Fixed cells were rinsed 10 times with deionized water and once with borate buffer (0.1 M, pH 8.5), dried, and stained with MB (100 μL of 1% solution in 0.1 M borate buffer, pH 8.5) for 1 h at room temperature (r.t.). Stained cells were rinsed thoroughly with de-ionized water to remove any non-cell-bound dye and then dried. The MB bound to the fixed cells was extracted by incubation at 37° C. with 200 μL of 0.1 N HCl for 1 h, and the net optical density of the dye in each well was determined by a plate spectrophotometer (Labsystems Multyskan Bichromatic, Finland) at 620 nm.

The test system of a further data set is OV-1063. The data set is described as follows: Methylene blue assay of cell survival. The format is cell-based, human. Conditions: Table 8B.
Source text: as §1, §2, §3, §4, §5, §6

Data set [3] in a line: Partition in the two phases of the Dole system. Type of data set: physicochemical.
Where [4] appears, read: Table 8A, C-26 cells, free ceramide dispersions, read-out: IC50 (μM), 4 hr.
Where [5] appears, read: Table 8A, C-26 cells, read-out: IC50 (μM), 24 hr.
Setting [6] is: Table 8A, C-26 cells, read-out: IC50 (μM), 72 hr.
Setting [7] is: Table 8B, read-out: IC50 (μM), 4 hr C-26.
Setting [8] is: Table 8B, read-out: IC50 (μM), 24 hr C-26.
Where [9] appears, read: Table 8B, read-out: IC50 (μM), 72 hr C-26.
Setting [10] is: read-out: IC50 (μM), 4 hr OV-1063.
Where [11] appears, read: read-out: IC50 (μM), 24 hr OV-1063.
Setting [12] is: read-out: IC50 (μM), 72 hr OV-1063.

As a reminder, the IC50 is the concentration that gives 50% inhibition. In the case of `CCCCCCCCCCCCC/C=C/[C@@H](O)[C@H](CO)NC(=O)CCCCCCCCCCCCCCC` [C16Cer, N-palmitoyl-D-erythro-sphingosine], the “Kp (heptane rich/isopropanol and water rich partition coefficient)” value in data set [1] came out at 8.21. Further, the “% of lipid in heptane-rich upper phase” value in data set [1] stood at 89%. The “% of lipid in isopropanol/water lower phase” value in data set [1] worked out at 11%. For the same compound, in data set [2], the monolayer stability entry is recorded as “unstable monolayer”. The “minimal area per molecule” value in data set [2] is reported as roughly 37.5 Å^2. In addition, the “collapse point pressure of monolayer” value in data set [2] is listed as “up to 50 mN/m”. In data set [2], the Area/molecule was 37.5 A^2. The IC50 with C-26 (setting [4]) is greater than 100 µM; in the data set on C-26 (setting [5]), greater than 100 µM; in the data set on C-26 (setting [6]), 80 µM; with C-26 (setting [7]), greater than 100 µM; with C-26 (setting [8]), greater than 100 µM; with C-26 (setting [9]) it was 80 µM. Further, the values for the IC50 in the data set on OV-1063 (setting [10]), in the data set with OV-1063 (setting [11]) and with OV-1063 (setting [12]) were greater than 100 µM, greater than 100 µM and 90 µM, respectively. Besides, in data set [3], the “Liposome formation (being a liposome forming lipid by itself)” value (“Liposome formation” below) is listed as “No”.

With `CCCCCCCCCCCCC/C=C/[C@@H](O)[C@H](CO)NC(C)=O` [C2Cer, N-Acetyl-D-erythro-sphingosine], the “Kp (heptane rich/isopropanol and water rich partition coefficient)” value in data set [1] came to 0.54. Besides, the “% of lipid in heptane-rich upper phase” value in data set [1] was 21% and 21.2%. In data set [1], the “% of lipid in isopropanol/water lower phase” value is 79% and 78.8%. Also, the monolayer stability entry in data set [2] is given as “did not give a stable monolayer”. Besides, in data set [2], the “minimal area per molecule” value is on record as “about 38 Å^2”. For the same compound, the “collapse point pressure of monolayer” value in data set [2] is given as “about 42 mN/m”. Further, the Area/molecule in data set [2] was found to be 38 A^2. Further, the IC50 was greater than 60 µM with C-26 (setting [4]); greater than 30 µM in the data set on C-26 (setting [5]); 20 ± 1 µM in the data set with C-26 (setting [6]); greater than 60 µM in the data set on C-26 (setting [7]); greater than 30 µM in the data set on C-26 (setting [8]); 20 ± 1 µM in the data set on C-26 (setting [9]). Further, the figures for the IC50 in the data set with OV-1063 (setting [10]), with OV-1063 (setting [11]) and with OV-1063 (setting [12]) were greater than 80 µM, greater than 30 µM and 25 ± 1.9 µM, respectively. In addition, the “Liposome formation” value in data set [3] is “No”.

On to `CCCCCCCCCCCCC/C=C/[C@@H](O)[C@H](CO)NC(=O)CCCCC` [C6Cer, N-hexanoyl-D-erythro-sphingosine], for which the “Kp (heptane rich/isopropanol and water rich partition coefficient)” value in data set [1] came out at 3.17. The “% of lipid in heptane-rich upper phase” value in data set [1] is 63% and 62.7%. For the same compound, the “% of lipid in isopropanol/water lower phase” value in data set [1] was found to be 37.3%. Also, the “minimal area per molecule” value in data set [2] was “about 50 Å^2”. Further, in data set [2], the “collapse point pressure of monolayer” value is “about 42 mN/m”. In data set [2], this compound showed an Area/molecule of 50 A^2. In addition, the half-maximal inhibitory concentration (IC50) in the data set on C-26 (setting [4]) amounted to 11 ± 5 µM; in the data set on C-26 (setting [5]) it was 4.1 ± 1.6 µM; in the data set on C-26 (setting [6]) it was 2.9 ± 1.2 µM; with C-26 (setting [7]), 11 ± 5 µM; with C-26 (setting [8]), 4.1 ± 1.6 µM; in the data set with C-26 (setting [9]), 2.9 ± 1.2 µM. For the same compound, the IC50 with OV-1063 (setting [10]) is 8 ± 0.1 µM; with OV-1063 (setting [11]), 4.5 ± 0.7 µM; in the data set with OV-1063 (setting [12]) it was 2.3 ± 1 µM. Also, the “Liposome formation” value in data set [3] is recorded as “No”.
